In article PMC8769072, “Proteome‐scale mapping of binding sites in the unstructured regions of the human proteome” (Molecular Systems Biology, 2022):

Tested on: immobilized GST-tagged bait protein domains
Assay: ProP-PD phage selections (HD2 P8, sublibraries, HD2 P3, HD1 P8) with NGS and confidence level
Type: binding, human
Conditions: for p3_HD2 confidence / p3_HD2 mean counts / p3_HD2 count proportions: HD2 P3 library; for HD confidence / HD mean counts / HD count proportions: HD1 P8 library
[1] = bait CRK_SH3_1_P46108_124_198, confidence level (4 = High, 2-3 = Medium, 1 = Low)
[2] = bait CRK_SH3_1_P46108_124_198, mean NGS counts over replicate selections
[3] = bait CRK_SH3_1_P46108_124_198, mean proportion of NGS counts
[4] = library HD2, bait EPS15_EH__P42566_121_215, whether the validated benchmark motif instance was recovered in the ProP-PD selection (TRUE/FALSE)
[5] = library HD2, bait VASP_EVH1__P50552_1_114, validated benchmark motif instance, in_library_check TRUE, TRUE/FALSE = instance recovered in ProP-PD selection
[6] = HD2 library, bait TLN1_PTB__Q9Y490_309_401, known motif instance of the benchmarking set found (TRUE) or not found (FALSE) among selected peptides
[7] = HD2 library, bait CALM1_EF-hand__P0DP23_2_149, benchmark motif instance, in_library_check FALSE, in_library_coverage 0
[8] = HD2 library, bait TNKS_TANK-peptide-bind__O95271_174_649, known motif instance of the benchmarking set found (TRUE) or not found (FALSE) among selected peptides
[9] = bait CALM1_EF-hand__P0DP23_2_149, library HD2, benchmarking set of validated motif instances, TRUE = motif instance recovered in the ProP-PD selection
[10] = bait KPNA4_Arm (O00629 68-487), HD2 library, benchmark motif instance recovered in the ProP-PD selection (TRUE/FALSE)
[11] = bait MAP1LC3A_ATG8 (Q9H492 2-121), HD2 library, benchmark motif instance recovered in the ProP-PD selection (TRUE/FALSE)
[12] = bait PABP-B_PABP__P11940_544_623, HD2 library, whether the validated benchmark motif instance was recovered in the ProP-PD selection (TRUE/FALSE)
[13] = bait PABP-B_PABP__P11940_544_623, HD2 library, confidence level (1-4) of best matching selected peptide
[14] = bait PABP-B_PABP__P11940_544_623, HD2 library, specificity score of best matching selected peptide
[15] = bait CRK_SH3_1_P46108_124_198, library HD2, benchmarking set of validated motif instances, TRUE = motif instance recovered in the ProP-PD selection
[16] = bait MAP1LC3B_ATG8 (Q9GZQ8 2-119), HD2 library, benchmark motif instance recovered in the ProP-PD selection (TRUE/FALSE)

Substance: QQVPAPPLPAKKNLPT
- p3_HD2 confidence [1]: 4
- p3_HD2 mean counts [2]: 120.7
- p3_HD2 count proportions [3]: 0.00436

Substance: QRTNPSPTNPFSSDLQKTF
- motif_found [4]: FALSE

Substance: QSGSGGIFPPPPDDDIYDG
- motif_found [5]: FALSE

Substance: QSKPLVDIDLISFDDD
- HD2_nc confidence (bait CLTC_Clathrin-propeller__Q00610_1_364, HD2 P8 nucleocytoplasmic sublibrary, confidence level (4 = High, 2-3 = Medium, 1 = Low)): 4
- HD2_nc mean counts (bait CLTC_Clathrin-propeller__Q00610_1_364, HD2 P8 nucleocytoplasmic sublibrary, mean NGS counts over replicate selections): 25.67
- HD2_nc count proportions (bait CLTC_Clathrin-propeller__Q00610_1_364, HD2 P8 nucleocytoplasmic sublibrary, mean proportion of NGS counts): 0.0005729

Substance: RARAKWDTANNPLYKEATSTFT
- motif_found [6]: FALSE

Substance: RCTSPGGSYGHLSIGTMSPSLG
- motif_found (bait SUFU_SUFU__Q9UMX1_1_484, HD2 library, whether the validated benchmark motif instance was recovered in the ProP-PD selection (TRUE/FALSE)): FALSE

Substance: RCVNSRQIRPPPDGSDCTSDLA [RAD54L 690-697]
- motif_found (HD2 library, bait TNKS_TANK-peptide-bind__O95271_174_649, benchmark motif instance, in_library_check FALSE, in_library_coverage 0): FALSE

Substance: RDAEAHPWLSDYDDLTSAT
- motif_found (bait PEX14_Pex14__O75381_16_84, HD2 library, whether the validated benchmark motif instance was recovered in the ProP-PD selection (TRUE/FALSE)): FALSE

Substance: REMEEKSALIIQKHWRGYRERKNFHQQRQSL [IQCB1 391-407]
- motif_found [7]: FALSE

Substance: RGRGDGQE
- motif_found [8]: FALSE

Substance: RHLPPPLPSKTPPPPP
- p3_HD2 confidence [1]: 3
- p3_HD2 mean counts [2]: 27.0
- p3_HD2 count proportions [3]: 0.0009618

Substance: RKKWKQSVRLISLCQRLSR,KWKQSVRLISLCQRLS [DAPK1]
- motif_found [9]: FALSE

Substance: RKNTKSMNFDNPVYRKTTEEED [LRP8 860-867]
- motif_found (HD2 library, bait TLN1_PTB__Q9Y490_309_401, benchmark motif instance, in_library_check FALSE, in_library_coverage 0): FALSE

Substance: RKQEEVSAIIIQRAYRRYLLKQKVKKVSSIY [SCN2A 1909-1925]
- motif_found [7]: FALSE

Substance: RKQYRKVLYCVVIIQKNYRAFLLRRRFLHLKKAA [MYO10 766-785]
- motif_found [7]: FALSE

Substance: RKRAKV
- motif_found [10]: FALSE

Substance: RKTLVSMPPLPGLDLKGSESPE [RFX5]
- motif_found (bait ANKRA2_Ank__Q9H9E1_142_313, library HD2, benchmarking set of validated motif instances, TRUE = motif instance recovered in the ProP-PD selection): FALSE

Substance: RLRHALWPSLPDLHRVLGQYLRDT
- motif_found (library HD2, bait ANKRA2_Ank__Q9H9E1_142_313, motif instance NOT in library (in_library_check FALSE, in_library_coverage 0)): FALSE

Substance: RMATAEDLPLPPPPALEDL
- motif_found [5]: FALSE

Substance: RMSQIKRLLSE
- motif_found (bait PTK2_Focal-AT__Q05397_891_1050, HD2 library, whether the validated benchmark motif instance was recovered in the ProP-PD selection (TRUE/FALSE)): FALSE

Substance: RPPDDAVFDIITDEELCQIQ
- motif_found [11]: FALSE

Substance: RRKWQKTGNAVRAIGRLSSM [MYLK]
- motif_found [9]: FALSE

Substance: RRMPAANLIQAAWRLYSTD [KCNQ4 338-356]
- motif_found [7]: FALSE

Substance: RRRFLHLKKAAIVFQKQLRGQIARRVYRQLLAEK [MYO10 789-808]
- motif_found [7]: FALSE

Substance: RRRWKLSFSIVSLCNHLTR [DAPK2]
- motif_found [9]: FALSE

Substance: RSEIGHSPPPAYTPMS
- motif_found (bait NEDD4_WW_4 (P46934 890-928), HD2 library, benchmark motif instance recovered in the ProP-PD selection (TRUE/FALSE)): TRUE
- best_confidence (bait NEDD4_WW_4 (P46934 890-928), HD2 library, confidence level (1-4) of best matching peptide): 2
- best_specificity (bait NEDD4_WW_4 (P46934 890-928), HD2 library, specificity score of best matching peptide): 1

Substance: RVTENNLQTPNPTASEFIPKGGSTSRL
- motif_found [12]: FALSE

Substance: SAEPRPRTRSNPEGAEDRAVGA
- motif_found [8]: FALSE

Substance: SALSPNAKEFIFPNMQ
- best_confidence [13]: 3
- best_specificity [14]: 1
- motif_found [12]: TRUE

Substance: SARILKEYNPFEEEDEEEE
- motif_found [4]: FALSE

Substance: SASYPPYQATGPPNTSYMPGMPGGI [TSG101]
- motif_found (bait CEP55_EABR__Q53EZ4_160_217, library HD2, benchmarking set of validated motif instances, TRUE = motif instance recovered in the ProP-PD selection): FALSE

Substance: SDLFPAPPQIPSRPVRIPPG [DNM2]
- motif_found [15]: FALSE

Substance: SDRTAAPGNPFRAKSEESE
- motif_found [4]: FALSE

Substance: SEEGDNESRSAGDGTDWEKEDQ
- motif_found [8]: FALSE

Substance: SETMSMPQLTVPASGS
- HD2 confidence (bait ANKRA2_Ank__Q9H9E1_142_313, library HD2 P8): 4

Substance: SFGGGFADF [EPS15]
- motif_found (bait AP2B1_adaptin__P63010_700_937, library HD2, benchmarking set of validated motif instances, TRUE = motif instance recovered in the ProP-PD selection): TRUE

Substance: SFLSRRAARTIQTAFRQYRMNKNFERLRSSA [IQSEC2]
- motif_found [9]: FALSE

Substance: SFNPDAQVFVPIGSQD
- best_confidence [13]: 3
- best_specificity [14]: 1
- motif_found [12]: TRUE

Substance: SGETQTTSPAIPWAAF
- HD confidence (bait AP2B1_adaptin__P63010_700_937, confidence level (4 = High, 2-3 = Medium, 1 = Low)): 4
- HD mean counts (bait AP2B1_adaptin__P63010_700_937, mean NGS counts over replicate selections): 10.25
- HD count proportions (bait AP2B1_adaptin__P63010_700_937, mean proportion of NGS counts): 0.003472

Substance: SGGSDEAPPKPSRPGYPSPR [PTK2]
- motif_found [15]: FALSE

Substance: SHLGTYGVFTNAAFDPSP----
- motif_found [6]: FALSE

Substance: SIDAHTFDFETIPHPNIEQ
- motif_found [11]: FALSE
- motif_found [16]: FALSE

Substance: SILEQTDMEAVEALVCMSSWGQRS
- motif_found (bait SIN3A_PAH__Q96ST3_295_383, HD2 library, whether the validated benchmark motif instance was recovered in the ProP-PD selection (TRUE/FALSE)): FALSE

Substance: SKSSNASWPPEFQPGVPWKGIQNIDPES
- motif_found [12]: FALSE

Substance: SKYITTIAGVMTLS
- motif_found (library HD2, bait CALM1_EF-hand__P0DP23_2_149, motif instance NOT in library (in_library_check FALSE, in_library_coverage 0)): FALSE

Substance: SLEQSERRRRLLELQKSKRLDYVNHARRLA,ERRRRLLELQKSKRLDYVNHARR,PRLSQYKSKYSSLEQSERRRRLLELQKSKRLDYVNHARR,EQSERRRRLLELQKSKRLDYVNHARR (UniProt O95149 42-64, looked up, fragment) [SNUPN 42-64]
- motif_found (HD2 library, bait KPNB1_Heat_1_Q14974_1_485, benchmark motif instance, in_library_check FALSE, in_library_coverage 0): FALSE

Substance: SLMTDEPGLDNPAYVSSAEDGQ
- motif_found [6]: FALSE

Substance: SLWTALSNFSMPSFPG
- HD2-1mM_CaCl confidence (bait CALM1 EF-hand (P0DP23, 2-149), HD2 library selection with 1mM_CaCl, confidence level (4 = High, 2 or 3 = Medium, 1 = Low)): 4
- HD2 confidence (bait CALM1 EF-hand (P0DP23, 2-149), HD2 library selection, confidence level (4 = High, 2 or 3 = Medium, 1 = Low)): 4

Substance: SNGSSINWPPEFHPGVPWKGLQNIDPEN
- motif_found [12]: FALSE

Substance: SNPFMTGAPTGQFPTG
- best_specificity (library HD2, bait EPS15_EH__P42566_121_215, best matching peptide): 1
- best_confidence (library HD2, bait EPS15_EH__P42566_121_215, confidence level of best matching peptide (4 High, 2-3 Medium, 1 Low)): 3
- motif_found [4]: TRUE

Substance: SNTNRFQVSVINENHE
- HD2_cytoplasm confidence (bait OXSR1___O95747_434_527, HD2 P8 cytoplasm sublibrary, confidence level (4 = High, 2-3 = Medium, 1 = Low)): 4

Substance: SPALTAPPPAYATLGPRP
- motif_found (bait NEDD4_WW_4_P46934_890_928, HD2 library, whether the validated benchmark motif instance was recovered in the ProP-PD selection (TRUE/FALSE)): FALSE
- motif_found (library HD2, bait YAP1_WW_1_P46937_169_207, validated benchmark motif instance, in_library_check TRUE, TRUE/FALSE = instance recovered in ProP-PD selection): FALSE

Substance: SPANSFHFKEAWKHAIQKAKHMPDPWA [EEF2K]
- motif_found [9]: FALSE

Substance: SPFLPDLNFFAADSCL
- HD2 confidence (bait ANKRA2_Ank__Q9H9E1_142_313, HD2 P8 selection, confidence level -4 to 4: 4 = High, 3 or 2 = Medium, 1 = Low, 0 = Filtered/Noise): 2

Substance: SPSLPNITLGLPATGP
- HD confidence (bait ANKRA2_Ank__Q9H9E1_142_313, confidence level (4 = High, 2-3 = Medium, 1 = Low)): 4
- HD mean counts (bait ANKRA2_Ank__Q9H9E1_142_313, mean NGS counts over replicate selections): 701.75
- HD count proportions (bait ANKRA2_Ank__Q9H9E1_142_313, mean proportion of NGS counts): 0.06192

Substance: SQKGNISETIVIDDEEDIETNGGA
- motif_found (HD2 library, bait SUMO1_SUMO__P63165_1_101, known motif instance of the benchmarking set found (TRUE) or not found (FALSE) among selected peptides): FALSE

Substance: SQPAGISTNPFMTGPSSSP
- motif_found [4]: FALSE

Substance: SQPVMRPPNPFGPVSGAQI
- motif_found [4]: FALSE

Substance: SQRIQTNNNPFQVPIEEQR [RELA 138-142]
- motif_found (HD2 library, bait EPS15_EH__P42566_121_215, benchmark motif instance, in_library_check FALSE, in_library_coverage 0): FALSE

Substance: SQSSASSEDYIIILPECFDT
- motif_found [11]: FALSE
- motif_found [16]: FALSE

Substance: SRHAQEPPAKRRKGSKGPEG-
- motif_found [10]: FALSE
